Laboratory results as given in US12168085B2, “Surgical system and methods of use” (priority 2021, dated 2024).

Columns and labels:
[1] = system: myofibroblast formation; settings: Ajmal et al. (2003); cited from earlier work
[2] = time to reach plasma concentrations; assay type: in vivo; settings: when given preoperatively

Row | Structure (SMILES) | effect on myofibroblast formation [1] | time to reach plasma concentrations [2] [min]
1 | O=S(=O)([O-])CCS.[Na+] [MESNA, sodium 2-mercaptoethane sulfonate] | diminish myofibroblast formation | –
2 | NC[C@H]1CC[C@H](C(=O)O)CC1 [tranexamic acid, trans-4-(aminomethyl)cyclohexanecarboxylic acid] | – | 5 to 15
